Ends that are not written are not given here.
What was measured:
[1] = Effect of adding transition metal on transfection efficiency of polymer:liposome:DNA complexes; assay type: cell-based; conditions: Zn2+ 0 to 2.00 μg/ml added to H-K2b, H-K3b or H-K4b:liposome:DNA
Experimental: To determine the effect of adding transition metals on the transfection efficiency of a polymer:DNA complex, 0.25 μg H-K2b, 0.125 μg H-K3b, or 0.125 μg H-K4b were initially mixed with 0.75 μg DNA. After 30 minutes, cationic liposomes were added for 30 minutes. Zn^2+ was then added in an amount ranging from 0 to 2.00 μg/ml. As a control, various amounts of zinc were added to the liposome:DNA complex.

endothelial cells (BAEC) = experiment: In vitro transfection with polymer:liposome:DNA complexes, luciferase activity; assay type: cell-based, bovine
Experimental: To further investigate the extent to which histidine order could affect transfection efficiency, four polymer solutions containing a different linear histidine copolymer (H-K (19-mer) (SEQ ID NO:3), HHH-K (20-mer) (SEQ ID NO:6), HH-K (20-mer) (SEQ ID NO:5), or K-HK (21-mer) (SEQ ID NO:9)) were mixed in amounts ranging from 0.125 μl to 2.5 μl with 0.75 μg DNA. The concentration of each of the polymer solutions was […]. After 30 minutes, 1.5 μg of liposomes were added. After adding the delivery compositions to endothelial cells (BAEC) for 4 hours, the cells were washed, and luciferase activity measured 48 hours later (FIG. 14).

MDA-MB-435 cells [2] = experiment: In vitro transfection with polymer:liposome:PCI-Luc complexes, luciferase activity; assay type: cell-based, human; conditions: for transfection efficiency / uptake of liposomes (sequence order comparison): polymer mixed with DNA then liposomes, cell line not stated; for transfection efficiency of the liposome: PCI-Luc complex, polymer vs no polymer (length comparison): 7.5 nmole polymer; for increase of transfection efficiency of branched polymer compared to the linear H-K polymer: with liposomes and 0.75 μg DNA, optimal dose; for transfection efficiency compared to H-K (19-mer): polymer:liposome:PCI-Luc
Experimental: (§1) 4.5×10^4 cells (MDA-MB-435, NIH3T3 or CHO) were initially plated into 24 well dishes. After 48 hours, when the cells were 60 and 80% confluent, cells were transfected with a plasmid encoding luciferase (PCI-Luc). In transfection experiments, the copolymer was initially incubated with PCI-Luc for 30 minutes in OptiM. The amount of copolymer which varied from 0.25 nmole to 15 nmole was mixed with the plasmid or oligonucleotide. The concentration of DNA varied from 0.25 μg to 0.75 μg. No visible aggregation of the polymer with the plasmid DNA was apparent at these concentrations. Cationic liposomes were then added, gently mixed, and then allowed to stand for an additional 30 minutes. The polymer:liposome:DNA complex was then diluted with either OptiM or OptiM+10% serum. In experiments utilizing lysomotropic agents, either chloroquine (Sigma, St. Louis, Mo.) or bafilomycin Al (Sigma) was added to the media at concentrations of 10 ng/ml and 25 μM, respectively. Four hours after transfection, the complexes were removed and DMEM with 10% serum was added. Forty-eight hours later, luciferase levels were measured with the Turner 20/20 luminometer. Duplicates were done for each concentration and each experiment was performed twice.

MDA-MB-435 cells [3] = experiment: In vitro transfection with polymer:DNA complex in the absence of liposomes, luciferase activity; assay type: cell-based, human; conditions: no liposomes
Experimental: as §1
Effect on transfection efficiency of a polymer:DNA complex: To determine the effect of branching on the transfection efficiency of a polymer:DNA complex, 7.5 nmol of H-K or 0.375 nmol of HH-K4b was mixed with PCI-Luc, and luciferase activity was measured as described above.
HH-K4b and HHH-K4b, respectively, have a histidine to lysine ratio of 1.5 and 2.4, respectively. […] In vitro transfection experiments were performed on MDA-MB-435 cells as described previously in 6.2 and 6.4.3. For the formation of the complex, 3.75 μg of polymer was mixed with 0.75 μg of PCI-Luc, and experiments were performed in a 24-well plates.

MDA-MB-435 cells [4] = experiment: Uptake of polymer:fluorescein-labeled oligonucleotide complex, CytoFluor fluorescence; assay type: cell-based, human; conditions: no liposomes; 0.75 μg 32-mer; 4 hour incubation, measured 24 hours later
Experimental: Effect on uptake of a polymer:oligonucleotide complex: In a second experiment, the same amount of HK or HHK4b was mixed with 0.75 μg of a 5′-end fluorescein-labeled randomly generated oligonucleotide(32-mer) for 30 minutes. This complex was added to the MDA-MB-435 cells for 4 hour incubation. Twenty-four hours later, the cells were then washed, and measured by CytoFluor fluorescence Measurement System. (Millipore, Bedford, Miss.).

[5] = tested on: MDA-MB-435 tumors in nude mice; experiment: In vivo tumor growth after intratumoral injection of HH-K4b:oligonucleotide complexes (DNAzyme against VEGF receptor mRNA); conditions: SEM in parentheses
Experimental: In vivo delivery of pharmaceutical agents. […] In this example, the receptor of VEGF mRNA with a DNA oligonucleotide that has enzymatic activity (also called DNAzyme) (36) was targeted. The VEGF receptor is essential for tumor angiogenesis and consequently tumor growth. After breast cancer cells (MDA-MB-435 cells) were injected into nude mice and the tumors grew to a visible size, the tumor was injected with the therapeutic polymer-DNA complex. The tumor was injected every 5 days for a total of 5 injections. There were 4 treatment groups: 1) untreated, 2) HH-K4B carrier alone, 3) HH-K4b+DNAzyme, and 4) HH-K4b+antisense oligonucleotides. To prepare the complex for injection, 45 μg of the HH-K4b polymer diluted in 150 μl of water was mixed with 24 μg of oligonucleotide, also diluted in 150 μl of water. After formation of the complex for 2 hours, 25 μl of the treatment complex was injected into each tumor. The therapeutic oligonucleotide sequence is 5′-TGCTCTCCA-GGCTAGCTACAACGA-CCTGCACCT-3′ (SEQ ID NO:18) whereas the control antisense oligonucleotide sequence is 5′-TGCTCTCCA-GGCTATGTACAACGA-CCTGCACCT-3′. (SEQ ID NO:19) The only difference between the therapeutic DNAzyme sequence and the antisense sequences is that the nucleotides responsible for cleaving the mRNA have been altered with the antisense DNA.

[6] = tested on: mice with 66.1 cell lung metastases; experiment: Intravenous delivery of polymer:liposome:PCI-Luc, lung luciferase activity; assay type: in vivo; conditions: complex with DOTAP/cholesterol liposomes, tumor laden mice, lungs six hours later
Experimental: FIG. 19. Branched transport polymer in combination with liposomes enhanced transfection efficiency when administered intravenously. Two weeks prior to injection of complex, 1.0×10^5 of 66.1 cells (a murine breast cancer cell line) were injected into mice to establish lung metastases. 6 μg of HH-K4b (volume-60 μl) was mixed with 30 μg of PCI-Luc (volume-60 μl). After 40 min, 18 μg of liposomes (DOTAP:cholesterol, volume-60 μl) was added and gently mixed for another 30 min. Total volume of the polymer: liposome: DNA solution is 180 μl. 0.28 μl of 1 M Hepes was mixed with H-K or HH-K4b solution, respectively, to neutralize to approximately pH-7.0. Liposome in complex with PCI-Luc complexes were prepared similarly. 150 μl of the complex solution was injected via the tail vein into the mice. Six hours later, the lungs were homogenized and the luciferase activity was measured in each group.
The liposomes were composed of DOTAP and cholesterol in a 1 to 1 molar ratio.

CHO cells = experiment: In vitro transfection with polymer:liposome:PCI-Luc complexes, luciferase activity; assay type: cell-based, Chinese hamster
Experimental: as §1

NIH-3T3 cells = experiment: as above; assay type: cell-based
Experimental: as §1

In the case of [Zn+2] [zinc], the “effect of added zinc on transfection efficiency of polymer:liposome:DNA complexes” value [1] is reported as “can enhance transfection efficiency”.

For “[KKHHHKHHHKKHHHKHHHKK] (KKHHHKHHHKKHHHKHHHKK) [HHH-K]”, the “transfection of DNA in combination with liposomes, rank among four polymers” value (endothelial cells (BAEC); highest concentration of polymer used) was “most effective of the four” and the “transfection of DNA in combination with liposomes, rank among four polymers” value (endothelial cells (BAEC); lower concentrations of polymer) was “not as effective as the other three polymers tested”.

With “[YGRKKRRQRRRGKHKHKHKHKHKHKHKHK] (YGRKKRRQRRRGKHKHKHKHKHKHKHKHK) [Y-HK]” the “transfection efficiency / uptake of liposomes (sequence order comparison)” value (MDA-MB-435 cells [2]; presence or absence of serum) was “accelerated useful transfection efficiency”.

In the case of “[K-K-K-K-K-K-K-K-K-G-K-K-K-K-K-K-K-K-K] (KKKKKKKKKGKKKKKKKKK) [poly-L-lysine, reference compound]”, the “effect of serum on transfection efficiency of polymer:liposome carrier” value (MDA-MB-435 cells [2]; presence vs absence of 10% serum) is reported as “markedly decreased in the presence of serum”.

In the case of “[KHKHHKHHKHHKHHKHHKHK]4K3 [HH-K4b]”, the “in vitro transfection compared to HHH-K4b” value (MDA-MB-435 cells [3]; 3.75 μg polymer, 0.75 μg PCI-Luc) is reported as “significantly more effective transfection agent in vitro”, the “transfection efficiency of polymer:DNA complex compared to linear H-K polymer” value (MDA-MB-435 cells [3]; 0.375 nmol HH-K4b vs 7.5 nmol H-K) is reported as “better” and the “luciferase expression as sole carrier of DNA compared to HH-K3b, HH-K2b and H-K4b” value (MDA-MB-435 cells [3]; data not shown) is reported as “better at enhancing luciferase expression”. For the same compound, the “uptake of oligonucleotides compared to linear HK polymer: oligonucleotides complex” value (MDA-MB-435 cells [4]) was “significantly enhanced uptake”, the “tumor volume, 1st Injection” value ([5]; measured before 1st injection (baseline)) was 9.5 (1.1) and the “tumor volume, 2nd Injection” value ([5]; measured before 2nd injection, intratumoral every 5 days) was 63.7 (10.7). For the same compound, the “tumor volume, 3rd Injection” value ([5]; measured before 3rd injection, intratumoral every 5 days) was 134 (30), the “tumor volume, 4th Injection” value ([5]; measured before 4th injection, intratumoral every 5 days) was 236 (55) and the “tumor volume, 5th Injection” value ([5]; measured before 5th injection, intratumoral every 5 days) was 429 (94). The “gene (luciferase) expression compared to liposomes only” value [6] was 7 fold.

In the case of “[K-H-K-H-K-H-K-G-K-H-K-H-K] (KHKHKHKGKHKHK) [H-K (13 mer)]”, the “transfection efficiency of the liposome: PCI-Luc complex, polymer vs no polymer (length comparison)” value (MDA-MB-435 cells [2]) is reported as “increased the transfection efficiency”.

With CO/C1=C\C(C)=C\[C@@H](C)[C@@H](O)[C@@H](C)C/C(C)=C/C=C/[C@H](OC)[C@@H]([C@@H](C)[C@@H](O)[C@H](C)[C@@]2(O)C[C@@H](O)[C@H](C)[C@@H](C(C)C)O2)OC1=O [bafilomycin A1] the “effect of lysosomotropic agent on transfection of the H-K: liposome: PCI-Luc triplex” value (from here on “effect of lysosomotropic agent … PCI-Luc triplex”) (CHO cells; CHO cells) was “significantly increased”, the “increase of transfection efficiency of the H-K: liposome: PCI-Luc triplex by lysosomotropic agent” value (CHO cells; CHO cells, 10 ng/ml bafilomycin added with transfection agents) was 5 fold and the “effect of lysosomotropic agent on transfection efficiency of the liposome: PCI-Luc complex” value (CHO cells; absence of the histidine copolymer) was “did not enhance the transfection efficiency”. For the same compound, the “effect of lysosomotropic agent … PCI-Luc triplex” value (NIH-3T3 cells) was “significantly increased”.

In the case of “[K-H-K-H-K-H-K-H-K-G-K-H-K-H-K-H-K-H-K]4 K3 [H-K4b]”, the “increase of transfection efficiency of branched polymer compared to the linear H-K polymer” value (“increase … to the linear H-K polymer” below) (MDA-MB-435 cells [2]; absence of serum) is reported as “approximately 10 fold”.

With “[YGRKKRRQRRRHHKHHKHHKHHKHHK] (YGRKKRRQRRRHHKHHKHHKHHKHHK) [Y-HH]” the “transfection efficiency / uptake of liposomes (sequence order comparison)” value (MDA-MB-435 cells [2]; presence or absence of serum) was “significantly enhanced the uptake of liposomes”.

In the case of “KHKHKHKHKGKHKHKHKHK-NH2 [H-K (19-mer), [K-H-K-H-K-H-K-H-K-G-K-H-K-H-K-H-K-H-K]]”, the “morphologic evidence of cellular toxicity due to the polymer” value (MDA-MB-435 cells [2]; even at concentrations of 0.5 mM) is reported as “No morphologic evidence of cellular toxicity”.

For “[K-H-K-H-K-H-K-H-K-G-K-H-K-H-K-H-K-H-K]3 K2 [H-K3b]”, the “increase … to the linear H-K polymer” value (MDA-MB-435 cells [2]; absence of serum) was “approximately 10 fold”.

In the case of “H-R (19-mer): arginine-histidine copolymer, SEQ ID NO: 13 (RHRHRHRHRGRHRHRHRHR)”, the “transfection efficiency compared to H-K (19-mer)” value (MDA-MB-435 cells [2]) is reported as “significantly better than H-K”.

With “[K-H-K-H-K-H-K-H-K-G-K-H-K-H-K-H-K-H-K]2 K [H-K2b]” the “increase … to the linear H-K polymer” value (MDA-MB-435 cells [2]; absence of serum) was “approximately 10 fold” and the “transport of DNA into cells (luciferase) relative to PEI” value (MDA-MB-435 cells [2]; presence or absence of serum, H-K2b 0.25 μg + DNA 0.75 μg + liposomes 1.5 μg vs PEI 0.5 μg) was “more than 10 fold”.

For “[KHKHKHKHKGKHKHKHKHKGKHKHKHKHK] (KHKHKHKHKGKHKHKHKHKGKHKHKHKHK) [H-K (29 mer)]”, the “transfection efficiency of the liposome: PCI-Luc complex, polymer vs no polymer (length comparison)” value (MDA-MB-435 cells [2]) was “increased the transfection efficiency” and the “transfection efficiency compared to the 13 mer” value (MDA-MB-435 cells [2]; 7.5 nmole polymer with liposome and DNA) was “increased transfection efficiency more than the 13 mer”.

With “[K-S-K-S-K-S-K-S-K-G-K-S-K-S-K-S-K-S-K] (KSKSKSKSKGKSKSKSKSK) [S-K (19-mer)]” the “transfection efficiency compared to no polymer” value (MDA-MB-435 cells [2]; absence of serum, with liposome: PCI-Luc) was “enhanced the transfection efficiency slightly more than when no polymer was added” and the “transfection efficiency compared to H-K (19-mer)” value (MDA-MB-435 cells [2]) was “significantly less effective”.

In the case of CCN(CC)CCCC(C)Nc1ccnc2cc(Cl)ccc12 (stereo not drawn) [chloroquine], the “effect of lysosomotropic agent … PCI-Luc triplex” value (CHO cells; CHO cells) is reported as “significantly increased” and the “effect of lysosomotropic agent … PCI-Luc triplex” value (NIH-3T3 cells) is reported as “significantly increased”.
